In US20230149421A1, “MEDICAMENT FOR PREVENTING OR TREATING IRRITABLE BOWEL SYNDROME OR INFLAMMATORY BOWEL DISEASE” (priority 2020, published 2023):

Key:
Assay type in all cases: in vivo, Sprague-Dawley rats
[1] = tested on: DNBS-induced colitis model; experiment: Microscopic (histological) damage score of colonic tissue in DNBS-induced colitis model; settings: DNBS rats, 6 days; for histological damage in colonic tissues compared to DNBS-induced colitis model: test compound groups (3, 10, 30 mg/kg) oral
Method: (§1) The induction of colitis was performed according to the method in Antonioli L, et al. (Non Patent Literature 8). 15 mg of 2,4-dinitrobenzenesulfonic acid (DNBS) in 0.25 ml of 50% ethanol was rectally administered through a polyethylene PE-60 catheter inserted 8 cm proximal to the anus, during a short period of anesthesia by Isoflurane (manufactured by Abbott Laboratories). To the control rat, 0.25 ml of 50% ethanol was administered.
(§2) The DNBS-induced colitis model and the control rats were euthanized in a CO2 chamber. After death, mid-abdominal incision was performed, and the colon was excised, which was then opened in a longitudinal direction (longitudinal muscle direction), washed with sterile physiological saline, and split into two parts in the longitudinal direction.
Evaluation of microscopic damage and inflammation was performed with an optical microscope using a tissue section obtained from a specimen of the entire intestine and stained with hematoxylin/eosin. Evaluation of severity of enteritis was performed by scoring the microscopic damage (histological damage) of the samples. As described above, colonic tissues that had been excised and washed with physiological saline were used as the samples.
The scoring was performed according to the criteria determined by making a minor amendment on the criteria reported in Non Patent Literature 11 (Non Patent Literature 12). The microscopic scoring (scoring of histological damage) criteria for the colonic damage are as shown in the following (1) to (5) (Non Patent Literatures 8 to 10), and the total points in (1) to (5) are used as a score.
(1) Loss of mucosal structure (no loss of mucosal structure: 0 points and mild to severe loss of mucosal structure: 1 to 3 points)
(2) Cellular infiltration (no cellular infiltration: 0 points and mild to severe cellular infiltration: 1 to 3 points)
(3) Muscle thickening (no muscle thickening: 0 points and mild to severe muscle thickening: 1 to 3 points) (4) Crypt abscess (none: 0 points and present: 1 point)
(5) Reduction in goblet cells (not reduced: 0 points and reduced: 1 point) […]

[2] = tested on: caspase-1; experiment: Caspase-1 expression in colonic tissue (western blotting), DNBS-induced colitis model; settings: DNBS rats; 10 mg/kg oral
Method: as §1
Sample preparation and a test method were performed by the same methods as those in Example 7.
Samples were prepared and a test was performed in the same manner as in Example 7, except that an anti-procaspase-1 antibody and an anti-caspase antibody (all ad1872, manufactured by Abcam plc., dilution 1: 1,000) were used as the antibodies, instead of the anti-occludin antibody.
Sample preparation and a test method were performed by the same methods as those in Example 8.

[3] = tested on: DNBS-induced colitis model; experiment: Change in body weight and spleen weight in DNBS-induced colitis model; settings: DNBS rats; for change in body weights: 3, 10 and 30 mg/kg oral immediately after DNBS, 6 days; for spleen weights compared to DNBS-induced colitis model: test compound groups (3, 10, 30 mg/kg) oral
Method: Sprague-Dawley rats (body weights of 200 to 225 g) which were male albino rats were used as model animals. Three model animals were housed in one cage in a temperature-controlled environment at 22-24° C., 50-60% humidity, and a light cycle of 12 hours, were given ad libitum access to standard laboratory feed and tap water, and were not used for at least one week after being brought into the laboratory.
A model in which colitis was induced by 2,4-dinitrobenzenesulfonic acid (hereinafter, denoted as DNBS, manufactured by Sigma-Aldrich, Inc.) (in the present specification, referred to as a “DNBS-induced colitis model”) was prepared.
as §1
Food intake was monitored everyday since initiation of the drug therapy. Furthermore, body weights of the rats were measured every morning, and evidence of blood in diarrhea and a stool or rectal bleeding was examined during the experimental period.

[4] = tested on: DNBS-induced colitis model; experiment: Macroscopic damage score of colonic tissue in DNBS-induced colitis model; settings: DNBS rats, 6 days
Method: as §1, §2
Evaluation was performed by scoring the macroscopic damage of the samples. As described above, colonic tissues that had been excised and washed with physiological saline were used as the samples.
The scoring was performed according to the criteria determined by making a minor amendment on the criteria reported in Non Patent Literature 11 (Non Patent Literature 12). […]
(4) Thickness (mm) of colonic tissue (colonic wall): 1 point was scored for 1 mm […]

[5] = tested on: occludin; experiment: Occludin expression in colonic tissue (western blotting), DNBS-induced colitis model; settings: DNBS rats; 10 mg/kg oral

Row | Compound | histological damage in colonic tissues compared to DNBS-induced colitis model [1] | caspase-1 expression in colon in which inflammation was induced [2] | change in body weights [3] | spleen weights compared to DNBS-induced colitis model [3] | macroscopic damage scores compared to DNBS-induced colitis model ([4]; 10 and 30 mg/kg oral) | occludin expression in inflamed tissues compared to DNBS-induced colitis model [5] | microscopic score compared to DNBS-induced colitis model ([1]; 10 and 30 mg/kg oral) | macroscopic damage scores compared to DNBS-induced colitis model ([4]; 3, 10 and 30 mg/kg oral)
1 | O=C1CC(=O)N(c2cccc(-c3noc(=S)[nH]3)c2)c2ccc3ccccc3c2N1.[Na] [Compound A17, 5-[3-(5-thioxo-4H-[1,2,4]oxadiazol-3-yl)phenyl]-1H-naphtho[1,2-b][1,4]diazepine-2,4(3H,5H)-dione sodium salt] | not affected | cannot be decreased | increase in body weights | significantly decreased | significant decrease | increased |  | 
2 | O=C1CC(=O)N(c2ccc(NC(=O)c3ccccc3I)cc2)c2ccc3ccccc3c2N1 [Compound B48, 5-[4-(2-iodobenzoylamino)phenyl]-1H-naphtho[1,2-b][1,4]diazepine-2,4(3H,5H)-dione] | decreased in a dose-dependent manner | decreased | increase in body weights | significantly decreased |  | increased | significant improvement | significant decrease
